Results taken from US7608577B2, “Peptidyl ketones as inhibitors of DPIV” (OSI Pharmaceuticals, Inc., priority 2001, dated 2009).
Where a name gives a salt, the structure may show the parent alone. Read-outs that look alike come from different tables or passages of the source.

Tests used:
[1] = biological target: T1, dipeptidyl peptidase IV from porcine kidney (Sus scrofa, UniProt P22411); experiment: Ki determination, DPIV inhibition (inhibitor released from prodrug by APN); format: biochemical; conditions: for Ki: porcine kidney DPIV, substrate Gly-Pro-pNA, APN added to release inhibitor, HEPES pH7.6; for T1/2 (half-life, from enzyme activity versus reaction time): same assay as Ki, unstable competitive inhibitor
T1 construct: dipeptidyl peptidase IV from porcine kidney with a specific activity against glycylprolyl-4-nitroaniline of 37.5 U/mg; from tissue; host or cells: porcine kidney
T1 sequence (P22411 whole entry): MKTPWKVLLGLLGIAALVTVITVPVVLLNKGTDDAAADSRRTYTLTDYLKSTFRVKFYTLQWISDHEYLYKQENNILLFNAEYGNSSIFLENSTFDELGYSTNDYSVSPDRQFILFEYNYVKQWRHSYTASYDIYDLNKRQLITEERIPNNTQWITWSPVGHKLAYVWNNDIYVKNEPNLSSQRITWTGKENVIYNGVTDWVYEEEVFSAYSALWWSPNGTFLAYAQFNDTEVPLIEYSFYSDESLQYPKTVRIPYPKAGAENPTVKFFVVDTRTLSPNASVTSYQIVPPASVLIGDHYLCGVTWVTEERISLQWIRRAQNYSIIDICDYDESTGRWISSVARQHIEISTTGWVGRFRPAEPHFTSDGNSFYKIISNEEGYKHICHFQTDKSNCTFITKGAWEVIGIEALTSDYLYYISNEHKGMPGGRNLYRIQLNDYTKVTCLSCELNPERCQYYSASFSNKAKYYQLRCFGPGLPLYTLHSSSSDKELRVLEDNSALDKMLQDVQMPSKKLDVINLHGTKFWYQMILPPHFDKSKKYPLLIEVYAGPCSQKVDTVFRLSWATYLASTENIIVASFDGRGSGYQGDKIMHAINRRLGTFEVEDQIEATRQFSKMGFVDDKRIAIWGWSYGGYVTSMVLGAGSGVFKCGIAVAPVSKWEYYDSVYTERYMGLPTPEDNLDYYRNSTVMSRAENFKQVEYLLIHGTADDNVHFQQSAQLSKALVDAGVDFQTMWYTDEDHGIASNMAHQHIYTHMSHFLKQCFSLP
Procedure: 500 μl test compound in a concentration range of 1*10^−5 M-1*10^−11M were admixed with and 500 μl HEPES buffer (40 mM, pH7.6; ion strength=0.125) and 20 μl of diluted DPIV. Release of the inhibitor from the prodrug as well the monitoring reaction (DPIV-catalyzed hydrolysis of Gly-Pro-pNA) were started by addition of a mixture of 10 μl of APN stock solution (4.9 mg/ml, Sigma, Taufkirchen, Germany) with 250 μl of the substrate (Gly-Pro-pNA, 0.05-4 mM). Development of yellow color due to 4-nitroaniline release were monitored at λ=405 nm for up to 180 min using UV1 Spectrometer (ThermoSpectronic).
The Ki-values were calculated by fitting the first derivative of the time-progress curves using Graphit (v.4.0.13, Erithacus Software, Ltd, UK) and an equation for an unstable competitive inhibitor.
The half-life (t1/2) was calculated by plotting the enzyme activity versus reaction time.

porcine DPIV = porcine DPIV (Sus scrofa, UniProt P22411); experiment: Determination of IC50 values against DPIV; format: biochemical; conditions: Gly-Pro-pNA 0.4 mM, APN, 30° C.
Sequence of porcine DPIV (P22411 whole entry): as above
Procedure: 100 μl inhibitor stock solution was mixed with 100 μl buffer (HEPES pH7.6) and 20 μl diluted porcine DPIV and preincubated at 30° C. Reaction was started by addition of a mixture of 50 μl substrate (Gly-Pro-pNA, final concentration 0.4 mM) and 2 μl APN stock solution. Formation of the product pNA was measured at 405 nm and 30° C. over 10 min using the HTS 7000Plus plate reader (Perkin Elmer) and slopes were calculated. The final inhibitor concentrations ranged between 1 mM and 30 nM. For calculation of IC50 GraFit 4.0.13 (Erithacus Software) was used.

Wistar rats = experiment: Glucose tolerance (OGTT) in Wistar rats under identical experimental conditions; format: in vivo; conditions: 100 mg/kg b.w. oral

Compound | Ki ([1]; read-out: Ki) [µM] | IC50 (porcine DPIV; HEPES pH7.6, read-out: IC50) [µM] | T1/2 (half-life, from enzyme activity versus reaction time) [1] [min] | also measured
CC(C)[C@H](NC(=O)[C@H](C)N)C(=O)N1CCC[C@H]1C(=O)CSCc1c(Cl)cccc1Cl [2-{[(2,6-Dichlorobenzyl)thiomethyl]carbonyl}-1-N-[{(L)-Alanyl}-(L)-Valinyl]-(2S)-pyrrolidine] | < 0.1 | 79.7 |  | 
CC(C)[C@H](NC(=O)[C@H](C)N)C(=O)N1CCC[C@H]1C(=O)c1ccccn1 [H-Ala Val-Pro-CO-(2-Pyridinyl)*TFA, 2-[(Pyridin-2-yl)carbonyl]-1-N-[{(L)-Alanyl}-(L)-Valinyl]-(2S)-pyrrolidine trifluoroacetate] |  | 1100 |  | 
C[C@H](N)C(=O)NCC(=O)N1CCC[C@H]1C(=O)c1nc2ccccc2s1.O=C(O)C(F)(F)F [H-Ala-Gly-Pro-CO-Benzothiazole*TFA, 2-[(Benzothiazol-2-yl)carbonyl]-1-N-[{(L)-Alanyl}-Glycyl]-(2S)-pyrrolidine trifluoroacetate] | 0.107 |  | 5.1 | 
CC(C)[C@H](NC(=O)[C@H](C)N)C(=O)N1CCC[C@H]1C(=O)c1nc2ccccc2s1.O=C(O)C(F)(F)F [H-Ala-Val-Pro-CO-Benzothiazole*TFA, 2-[(Benzothiazol-2-yl)carbonyl]-1-N-[{(L)-Alanyl}-(L)-Valinyl]-(2S)-pyrrolidine trifluoroacetate] | 0.0373 |  | 17.0 | 
CC(C)[C@H](NC(=O)[C@H](C)N)C(=O)N1CCC[C@H]1C(=O)c1nccs1.O=C(O)C(F)(F)F [H-Ala-Val-Pro-CO-Thiazole*TFA, 2-[([1,3]-Thiazol-2-yl)carbonyl]-1-N-[{(L)-Alanyl}-(L)-Valinyl]-(2S)-pyrrolidine trifluoroacetate] | 0.0332 |  | 15.1 | IC50 (porcine DPIV; HEPES pH7.6): no inhibition
Br.CC(C)[C@H](NC(=O)CN)C(=O)N1CCC[C@H]1C(=O)COC(=O)c1ccccc1 [H-Gly-Val-Pro-CO—CH2O—CO—Ph*HBr, 2-[(Benzoyloxy-methyl)carbonyl]-1-N-[Glycyl-(L)-Valinyl]-(2S)-pyrrolidine hydrobromide] |  | 4.94 |  | Ki [1]: no inhibition
Br.CC(=O)[C@@H]1CCCN1C(=O)[C@@H](NC(=O)[C@@H]1CCCN1C(=O)[C@@H](N)C(C)C)C(C)C [H-Val-Pro-Val-Pro-Me*HBr, 2-Methylcarbonyl-1-N-[(L)-Valinyl-(L)-Prolyl-(L)-Valinyl]-(2S)-pyrrolidine hydrobromide] |  |  |  | AUC test compound (Wistar rats): 66.4 mmol·min/L; Improvement (Wistar rats; vs AUC control): 44.1%
